Data set [1] addresses T1, Cytochrome P450 1A1 (Homo sapiens, UniProt P04798).
T1 sequence (P04798 whole entry): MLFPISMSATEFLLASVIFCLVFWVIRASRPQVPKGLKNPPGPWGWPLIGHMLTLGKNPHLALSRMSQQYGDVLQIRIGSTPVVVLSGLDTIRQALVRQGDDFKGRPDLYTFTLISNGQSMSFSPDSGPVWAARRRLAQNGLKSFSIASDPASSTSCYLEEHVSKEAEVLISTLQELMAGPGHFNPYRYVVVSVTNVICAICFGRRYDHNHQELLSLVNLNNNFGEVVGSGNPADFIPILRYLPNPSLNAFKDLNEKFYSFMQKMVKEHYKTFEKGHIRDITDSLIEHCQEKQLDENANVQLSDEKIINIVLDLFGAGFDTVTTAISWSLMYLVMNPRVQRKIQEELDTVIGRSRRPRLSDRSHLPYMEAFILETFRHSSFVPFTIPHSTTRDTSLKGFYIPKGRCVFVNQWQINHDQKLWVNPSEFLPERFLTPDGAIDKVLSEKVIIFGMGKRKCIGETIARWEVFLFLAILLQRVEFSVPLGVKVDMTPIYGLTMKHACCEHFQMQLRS
As to the kind of experiment: Inhibition of CYP1A1 (unknown origin) expressed in HEK293-T-REx cells co-expressing POR incubated for 1 hr by resorufin dye based plate reader analysis. Type of data set: ADME, cell-based.

Data set [2] is described as follows: Cytotoxicity against HEK293-T-REx cells assessed as reduction in cell viability measured after 72 hrs by resazurin dye based analysis. The format is toxicity, Homo sapiens. The note with it: for IC50: hek293-t-rex; for IC50 at 72 h: human, HEK293-T-REx cells. In general terms: Resazurin is reduced to fluorescent resorufin, in cell work by metabolically active cells.

Data set [3] addresses Cytochrome P450 1B1 (Homo sapiens, UniProt Q16678, S127C). As to the kind of experiment: Inhibition of CYP1B1 S127C mutant (unknown origin) expressed in HEK293-T-REx cells. Type of data set: ADME, cell-based.
Data set [4] deals with Cytochrome P450 1B1 (Homo sapiens, UniProt Q16678, T334V). As to the kind of experiment: Inhibition of CYP1B1 T334V mutant (unknown origin) expressed in HEK293-T-REx cells. The format is ADME, cell-based.
The target in data set [5] is Cytochrome P450 1B1 (Homo sapiens, UniProt Q16678, T510V). As to the kind of experiment: Inhibition of CYP1B1 T510V mutant (unknown origin) expressed in HEK293-T-REx cells. The format is ADME, cell-based.
For data set [6], the target named is T2, Cytochrome P450 1B1 (Homo sapiens, UniProt Q16678).
T2 sequence (Q16678 whole entry): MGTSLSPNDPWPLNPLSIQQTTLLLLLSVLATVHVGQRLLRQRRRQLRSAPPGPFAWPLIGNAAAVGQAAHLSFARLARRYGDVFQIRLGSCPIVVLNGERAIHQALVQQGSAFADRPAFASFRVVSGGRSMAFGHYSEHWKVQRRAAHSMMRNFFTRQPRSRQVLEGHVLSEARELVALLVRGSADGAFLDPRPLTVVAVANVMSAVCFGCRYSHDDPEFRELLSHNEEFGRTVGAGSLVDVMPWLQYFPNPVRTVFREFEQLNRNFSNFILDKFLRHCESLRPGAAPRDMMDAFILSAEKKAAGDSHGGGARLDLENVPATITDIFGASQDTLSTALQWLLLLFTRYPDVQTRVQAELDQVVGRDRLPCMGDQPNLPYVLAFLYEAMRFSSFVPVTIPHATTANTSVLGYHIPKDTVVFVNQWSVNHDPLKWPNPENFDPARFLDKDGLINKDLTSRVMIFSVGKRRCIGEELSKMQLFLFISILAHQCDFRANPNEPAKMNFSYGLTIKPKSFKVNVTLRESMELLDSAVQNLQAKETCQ
The data set can be described thus: Inhibition of CYP1B1 (unknown origin) expressed in HEK293-T-REx cells co-expressing POR incubated for 1 hr by resorufin dye based plate reader analysis. Type of data set: ADME, cell-based.

Data set [7] concerns the target T2, Cytochrome P450 1B1. As to the kind of experiment: Binding affinity to N-terminal human microsomal CYP1B1 expressed in Escherichia coli assessed as spectral dissociation constant by absorbance based analysis.
The nature of data set [8]: in vitro. The settings on record: human, liver.
Data set [9] in a line: in vitro. The note with it: rat, liver.
Data set [10] can be described thus: in vitro. The note with it: mouse, liver.
Data set [11] relates to CYP1A1 versus CYP1B1. The data set can be described thus: Selectivity index, ratio of IC50 for CYP1A1 (unknown origin) to IC50 for CYP1B1 (unknown origin). The note with it: read-out: Ratio IC50.

Cytochrome P450 1B1 (Homo sapiens, UniProt Q16678, T334V), sequence (Q16678 whole entry T334V): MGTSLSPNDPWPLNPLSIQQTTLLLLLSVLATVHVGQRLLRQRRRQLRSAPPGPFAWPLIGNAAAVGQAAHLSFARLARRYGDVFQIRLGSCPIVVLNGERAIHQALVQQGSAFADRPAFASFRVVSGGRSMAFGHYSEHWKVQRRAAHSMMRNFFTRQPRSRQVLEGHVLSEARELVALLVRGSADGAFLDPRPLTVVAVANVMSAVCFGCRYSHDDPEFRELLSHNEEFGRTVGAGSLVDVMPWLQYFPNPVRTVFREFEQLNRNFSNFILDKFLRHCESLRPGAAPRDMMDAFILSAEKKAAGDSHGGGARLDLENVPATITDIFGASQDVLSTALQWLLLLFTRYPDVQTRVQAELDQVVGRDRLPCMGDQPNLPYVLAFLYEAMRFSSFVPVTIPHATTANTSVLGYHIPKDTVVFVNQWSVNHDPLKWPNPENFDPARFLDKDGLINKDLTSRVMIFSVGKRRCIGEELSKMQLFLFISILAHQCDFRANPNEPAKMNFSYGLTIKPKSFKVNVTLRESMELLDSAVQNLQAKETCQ
Cytochrome P450 1B1 (Homo sapiens, UniProt Q16678, T510V), sequence (Q16678 whole entry T510V): as the sequence (Q16678 whole entry T334V) above, with V334T, T510V counted along it
Cytochrome P450 1B1 (Homo sapiens, UniProt Q16678, S127C), sequence (Q16678 whole entry S127C): as the sequence (Q16678 whole entry T334V) above, with S127C, V334T counted along it

The IC50 is the concentration that inhibits the measured activity by half. The molecule `COc1ccc(/C=C/c2ccncc2)c(OC)c1` showed an IC50 in data set [1] of 4.57 µM.
`COc1ccc(-c2csc(-c3ccc(OC)cc3OC)n2)cc1`: the IC50 in data set [2] was over 100 µM.
Regarding `O=c1cc(-c2ccccc2)oc2c1ccc1ccccc12` [ALPHA-NAPHTHOFLAVONE], the IC50 in data set [2] was found to be 14.8 µM. Further, the “inhibition (INH)” value in [3] is reported as “Active”; in data set [4], “Not Active”; in [5], “Active”.
As for `COc1ccc(-c2nc(-c3ccc(F)cc3)cs2)c(OC)c1`, the IC50 in data set [2] was 51.4 µM.
Same read-out and setting: the result for `COc1ccc(-c2nc(-c3cccnc3)cs2)c(OC)c1` reads 26.7 µM.
Consider `COc1cc(/C=C/c2ccc(OC)cc2OC)cc(OC)c1`, for which the 50% inhibitory concentration (IC50) in data set [2] came out at 1.3 µM. For the same molecule, the “inhibition (INH)” value was “Active” in data set [3], “Not Active” in data set [4] and “Not Active” in [5].
The Kd is the constant that tells how readily two partners part at equilibrium. Turning to `COc1ccc(-c2nc(-c3ccc(O)cc3)cs2)c(OC)c1`, the IC50 in data set [6] came out at 0.6 µM; in data set [2] it was 3.4 µM. In [7], the Kd came out at 0.35 µM.
Regarding `COc1cc(OC)cc(-c2ccnc(-c3cc(OC)cc(OC)c3)n2)c1`, the IC50 at 72 h in [2] came out at 10 µM.
`COc1cc(OC)cc(-c2cc(-c3cc(OC)cc(OC)c3)ncn2)c1`: the IC50 in [2] was determined as 10 µM.
As for `COc1ccc(-c2nc(-c3ccc(C#N)cc3)cs2)c(OC)c1`, in data set [2], the concentration for half-maximal inhibition (IC50) is over 100 µM. Moreover, the “inhibition (INH)” value in data set [4] and in data set [5] was “Not Active” each time.
Regarding `COc1cc(OC)cc(-c2csc(-c3cc(OC)cc(OC)c3)n2)c1`, in data set [2], the concentration for half-maximal inhibition (IC50) at 72 h was found to be 10 µM.
In the case of `COc1cc(OC)cc(-c2cncc(-c3cc(OC)cc(OC)c3)c2)c1`, the IC50 in [2] came to 0.18 µM.
Same read-out and setting: the same measure for `COc1cc(OC)cc(-c2cccc(-c3cc(OC)cc(OC)c3)c2)c1`: 4.18 µM; for `COc1cc(OC)cc(-c2ccc(-c3cc(OC)cc(OC)c3)s2)c1`: over 10 µM.
A word on the CLint scaled: it is a measure of how fast metabolising enzymes remove a compound, apart from limits set by blood flow. Low readings indicate greater metabolic stability, high ones faster metabolism. Turning to `O=C(O)Cc1ccccc1Nc1c(Cl)cccc1Cl` [DICLOFENAC], the CLint scaled at 100 µM in data set [8] was 324 mL/min/kg; in [9], 142 mL/min/kg; in data set [10], 178 mL/min/kg.
For the molecule `COc1ccc(-c2csc(-c3ccc(OC)cc3OC)n2)c(OC)c1`, the IC50 in [2] is about 100 µM.
`COc1ccc(OC)c2c1c(OC)cc1c(=O)cc(-c3cccc(F)c3)oc12` displayed an IC50 in data set [1] of 0.012 µM.
`COc1ccc(-c2cccc(-c3ccc(OC)cc3OC)c2)c(OC)c1`: in data set [2], the IC50 was 1.62 µM.
For the molecule `C#C[C@]1(O)CC[C@H]2[C@@H]3CCc4cc(O)c(-c5ccc(OC)cc5)cc4[C@H]3CC[C@@]21C`, the values for the IC50 in data set [6] and in data set [1] were 0.37 µM and 9.2 µM, respectively. Further, the selectivity ratio in data set [11] was 25.

Source of the values: ChEMBL document CHEMBL5325398, “Design of Cytochrome P450 1B1 Inhibitors via a Scaffold-Hopping Approach” (J Med Chem, 2023).
